Test results taken from patent US20050197350A1, “Novel quinoline, tetrahydroquinazoline, and pyrimidine derivatives and methods of treatment related to the use thereof” (TAISHO PHARMACEUTICAL CO., LTD., priority 2003, published 2005).
Like-named read-outs stand apart in the source and are kept apart here.

Tested on: MCH receptors
Test: MCH receptor activity class (method not given)
[1] = class by percent of control at 10^-7 M or IC50
[2] = class by percent of control at 10^−7 M or IC50
[3] = activity class 1-3: percent of control at 10^-7 M or IC50
[4] = class 1-3 by percent of control at 10^-7 M or IC50
[5] = MCH receptor, class by percent of control at 10^-7 M or IC50
[6] = activity class per percent of control at 10^-7 M or IC50

| Structure (SMILES) | class [1] | further results |
| --- | --- | --- |
| COc1ccc(OC)c(CN[C@H]2CC[C@@H](Nc3nc4c(c(N(C)C)n3)CCCC4)CC2)c1 [compound 1329] | 3 (Class 3 The value of percent of control at 10^−7 M was more than 60% or the value of IC50 was more than 200 nM.) | – |
| Cc1cnc(NC[C@H]2CC[C@@H](NC(=O)c3ccc(OC(F)(F)F)cc3)CC2)nc1N(C)C [compound 2722] | – | class [2]: 3 (Class 3 The value of percent of control at 10^−7 M was more than 60% or the value of IC50 was more than 200 nM.) |
| CN(C)c1cc(N[C@H]2CC[C@@H](NC(=O)C(CC(=O)c3ccc(Cl)cc3)SCc3ccc(Cl)cc3)CC2)nc2ccccc12 (relative stereo) [compound 741] | 3 (Class 3 The value of percent of control at 10^−7 M was more than 60% or the value of IC50 was more than 200 nM.) | – |
| CCCc1ccccc1NC(=O)N[C@H]1CC[C@@H](Nc2nc3c(c(N(C)C)n2)CCCC3)CC1 [compound 1682] | – | class [3]: 3 (Class 3 The value of percent of control at 10^−7 M was more than 60% or the value of IC50 was more than 200 nM.) |
| CN(C)c1ccnc(N[C@H]2CC[C@@H](CNC(=O)c3ccc(-c4ccccc4)cc3)CC2)n1 [compound 437] | – | class [4]: 3 (Class 3 The value of percent of control at 10^−7 M was more than 60% or the value of IC50 was more than 200 nM.) |
| CN(C)c1cc(N[C@H]2CC[C@@H](CNCc3cc(Cl)ccc3Cl)CC2)nc2ccccc12 [compound 1473] | 3 (Class 3 The value of percent of control at 10^−7 M was more than 60% or the value of IC50 was more than 200 nM.) | – |
| COc1cc(OC)cc(C(=O)NC[C@H]2CC[C@@H](Nc3cc(N(C)C)c4ccccc4n3)CC2)c1 [compound 203, N-[(cis-4-{[4-(dimethylamino)quinolin-2-yl]amino}cyclohexyl)methyl]-3,5-dimethoxybenzamide] | – | class [5]: 3 (Class 3 The value of percent of control at 10^−7 M was more than 60% or the value of IC50 was more than 200 nM.) |
| CN(C)c1nc(N[C@H]2CC[C@@H](NC(=O)NCc3cccc(F)c3)CC2)nc2c1CCCC2 [compound 1873] | 3 (Class 3 The value of percent of control at 10^−7 M was more than 60% or the value of IC50 was more than 200 nM.) | – |
| CC(=O)OC(C(=O)N[C@H]1CC[C@@H](Nc2nc3c(c(N(C)C)n2)CCCC3)CC1)c1ccccc1 (relative stereo) [compound 528] | – | class [4]: 1 (Class 1: The value of percent of control at 10^−7 M was less than 40% or the value of IC50 was less than 50 nM.) |
| CN(C)c1cc(N[C@H]2CC[C@@H](NCc3c[nH]nc3-c3ccc(F)cc3)CC2)nc2ccccc12 [compound 1117] | – | class [6]: 3 (Class 3 The value of percent of control at 10^−7 M was more than 60% or the value of IC50 was more than 200 nM.) |
| CN(C)c1cc(N[C@H]2CC[C@@H](CNC(=O)c3cccc(C(F)(F)F)c3F)CC2)nc2ccccc12 [compound 191] | – | class [5]: 3 (Class 3 The value of percent of control at 10^−7 M was more than 60% or the value of IC50 was more than 200 nM.) |
| CN(C)c1ccnc(N[C@H]2CC[C@@H](CNC(=O)Cc3c(Cl)ccc(Cl)c3Cl)CC2)n1 [compound 926, N-[(cis-4-{[4-(dimethylamino)pyrimidin-2-yl]amino}cyclohexyl)methyl]-2-(2,3,6-trichlorophenyl)acetamide] | 1 (Class 1: The value of percent of control at 10^−7 M was less than 40% or the value of IC50 was less than 50 nM.) | – |
| Cc1ccc(C(=O)NC[C@H]2CC[C@@H](Nc3ncc(C)c(N(C)C)n3)CC2)cc1F [compound 2695, N-[(cis-4-{[4-(dimethylamino)-5-methylpyrimidin-2-yl]amino}cyclohexyl)methyl]-3-fluoro-4-methylbenzamide] | – | class [2]: 2 (Class 2: The value of percent of control at 10^−7 M was from 40% to 60% or the value of IC′50 was from 50 nM to 200 nM.) |
| COc1ccc(NC(=O)N[C@H]2CC[C@@H](Nc3nc4c(c(N(C)C)n3)CCCC4)CC2)c(C)c1 [compound 1726] | 2 (Class 2: The value of percent of control at 10^−7 M was from 40% to 60% or the value of IC′50 was from 50 nM to 200 nM.) | – |
| CN(C)c1nc(N[C@H]2CC[C@@H](CNC(=O)c3cc(Cl)sc3Cl)CC2)nc2c1CCCC2 [compound 645] | 3 (Class 3 The value of percent of control at 10^−7 M was more than 60% or the value of IC50 was more than 200 nM.) | – |
| CN(C)c1nc(N[C@H]2CC[C@@H](NC(=O)Nc3ccc4c(c3)OCO4)CC2)nc2c1CCCC2 [compound 1718] | 3 (Class 3 The value of percent of control at 10^−7 M was more than 60% or the value of IC50 was more than 200 nM.) | – |
| CN(C)c1ccnc(N[C@H]2CC[C@@H](CNC(=O)c3cccc(C#N)c3)CC2)n1 [compound 374] | 3 (Class 3 The value of percent of control at 10^−7 M was more than 60% or the value of IC50 was more than 200 nM.) | – |
| CN(C)c1nc(N[C@H]2CC[C@@H](NC(=O)Nc3c(Cl)cccc3Cl)CC2)nc2c1CCCC2 [compound 1800] | 3 (Class 3 The value of percent of control at 10^−7 M was more than 60% or the value of IC50 was more than 200 nM.) | – |
| Cc1ccc(C)c(NC(=O)N[C@H]2CC[C@@H](Nc3nc4c(c(N(C)C)n3)CCCC4)CC2)c1 [compound 1850] | 3 (Class 3 The value of percent of control at 10^−7 M was more than 60% or the value of IC50 was more than 200 nM.) | – |

| Structure (SMILES) | class [1] | further results |
| --- | --- | --- |
| COc1ccc2c(CC(=O)N[C@H]3CC[C@@H](Nc4cc(N(C)C)c5ccccc5n4)CC3)cc(=O)oc2c1 [compound 715] | 3 (Class 3 The value of percent of control at 10^−7 M was more than 60% or the value of IC50 was more than 200 nM.) | – |
| CN(C)c1ccnc(N[C@H]2CC[C@@H](NC(=O)COc3ccc(Cl)cc3)CC2)n1 [compound 314] | 1 (Class 1: The value of percent of control at 10^−7 M was less than 40% or the value of IC50 was less than 50 nM.) | – |
| CN(C)c1ccnc(N[C@H]2CC[C@@H](NC(=O)NCc3ccccc3Cl)CC2)n1 [compound 2195] | 3 (Class 3 The value of percent of control at 10^−7 M was more than 60% or the value of IC50 was more than 200 nM.) | – |
| COc1ccc(CNC[C@H]2CC[C@@H](Nc3cc(N(C)C)c4ccccc4n3)CC2)cc1C [compound 1190] | 3 (Class 3 The value of percent of control at 10^−7 M was more than 60% or the value of IC50 was more than 200 nM.) | – |
| CN(C)c1ccnc(N[C@H]2CC[C@@H](CNC(=O)c3cccc(I)c3)CC2)n1 [compound 403] | 3 (Class 3 The value of percent of control at 10^−7 M was more than 60% or the value of IC50 was more than 200 nM.) | – |
| CN(C)c1cc(N[C@H]2CC[C@@H](CNC(=O)c3cc(C(F)(F)F)cc(C(F)(F)F)c3)CC2)nc2ccccc12 [compound 205, N-[(cis-4-{[4-(dimethylamino)quinolin-2-yl]amino}cyclohexyl)methyl]-3,5-bis(trifluoromethyl)benzamide] | – | class [5]: 3 (Class 3 The value of percent of control at 10^−7 M was more than 60% or the value of IC50 was more than 200 nM.) |
| Cc1cc(N(C)C)nc(NC[C@H]2CC[C@@H](NC(=O)c3ccc(F)c(C)c3)CC2)n1 [compound 2738] | – | class [2]: 3 (Class 3 The value of percent of control at 10^−7 M was more than 60% or the value of IC50 was more than 200 nM.) |
| CN(C)c1nc(N[C@H]2CC[C@@H](NC(=S)Nc3ccc(Cl)c(C(F)(F)F)c3)CC2)nc2c1CCCC2 [compound 1992] | – | class [5]: 3 (Class 3 The value of percent of control at 10^−7 M was more than 60% or the value of IC50 was more than 200 nM.) |
| CN(C)c1nc(N[C@H]2CC[C@@H](NC(=S)Nc3cccc(F)c3)CC2)nc2c1CCCC2 [compound 1984] | – | class [5]: 3 (Class 3 The value of percent of control at 10^−7 M was more than 60% or the value of IC50 was more than 200 nM.) |
| CN(C)c1nc(N[C@H]2CC[C@@H](CNC(=O)c3ccc(-c4ccc(Cl)cc4[N+](=O)[O-])o3)CC2)nc2c1CCCC2 [compound 1064] | – | class [6]: 3 (Class 3 The value of percent of control at 10^−7 M was more than 60% or the value of IC50 was more than 200 nM.) |
| CN(C)c1cc(N[C@H]2CC[C@@H](NC(=O)Nc3ccc4c(c3)OCCCO4)CC2)nc2ccccc12 [compound 2164] | 3 (Class 3 The value of percent of control at 10^−7 M was more than 60% or the value of IC50 was more than 200 nM.) | – |
| COc1ccc(Cl)cc1CNC[C@H]1CC[C@@H](Nc2nccc(N(C)C)n2)CC1 [compound 1535] | – | class [3]: 3 (Class 3 The value of percent of control at 10^−7 M was more than 60% or the value of IC50 was more than 200 nM.) |
| Cc1cc(N(C)C)nc(N[C@H]2CC[C@@H](C(=O)NCc3ccccc3OC(F)(F)F)CC2)n1 [Example 2587, cis-4-{[4-(dimethylamino)-6-methylpyrimidin-2-yl]amino}-N-[2-(trifluoromethoxy)benzyl]cyclohexanecarboxamide] | – | class: 1 |
| CN(C)c1nc(N[C@H]2CC[C@@H](NC(=S)Nc3c(F)cccc3F)CC2)nc2c1CCCC2 [compound 1974] | – | class [5]: 3 (Class 3 The value of percent of control at 10^−7 M was more than 60% or the value of IC50 was more than 200 nM.) |
| COc1cccc(C(=O)N[C@H]2CC[C@@H](Nc3ncc(C)c(N(C)C)n3)CC2)c1 [compound 2938, N-(cis-4-{[4-(dimethylamino)-5-methylpyrimidin-2-yl]amino}cyclohexyl)-3-methoxybenzamide] | – | class [2]: 1 (Class 1: The value of percent of control at 10^−7 M was less than 40% or the value of IC50 was less than 50 nM.) |
| CN(C)c1cc(N[C@H]2CC[C@@H](NC(=O)Cc3ccc(Cl)cc3)CC2)nc2ccccc12 [compound 28] | – | class [5]: 3 (Class 3 The value of percent of control at 10^−7 M was more than 60% or the value of IC50 was more than 200 nM.) |
| CN(C)c1ccnc(N[C@H]2CC[C@@H](NC(=O)C3CCCC[C@H]3C(=O)c3ccccc3)CC2)n1 (some centres unmarked) [compound 832] | 3 (Class 3 The value of percent of control at 10^−7 M was more than 60% or the value of IC50 was more than 200 nM.) | – |
| Cc1cc(N(C)C)nc(NC[C@H]2CC[C@@H](NC(=O)c3ccc(Br)cc3)CC2)n1 [compound 2744, 4-bromo-N-[cis-4-({[4-(dimethylamino)-6-methylpyrimidin-2-yl]amino}methyl)cyclohexyl]benzamide] | – | class [2]: 2 (Class 2: The value of percent of control at 10^−7 M was from 40% to 60% or the value of IC′50 was from 50 nM to 200 nM.) |
| CSc1ccc(CN[C@H]2CC[C@@H](Nc3nc4c(c(N(C)C)n3)CCCC4)CC2)cc1 [compound 1360] | 3 (Class 3 The value of percent of control at 10^−7 M was more than 60% or the value of IC50 was more than 200 nM.) | – |
